Data: PubChem BioAssay (NCI)
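Briefly, cells in 96-well plates were exposed to five compound concentrations for 48 h, and endpoints were estimated by linear interpolation. Here, GI50 denotes the concentration required for 50% inhibition of growth. TGI: concentration producing complete growth inhibition.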

Tests used:
Experiment in all cases: growth of human tumour cells (NCI), 48 h
[1] = system: A498 renal
[2] = system: A549 NSCLC
[3] = system: ACHN renal
[4] = system: BT-549 breast
[5] = system: CAKI-1 renal
[6] = system: CCRF-CEM leukemia
[7] = system: COLO 205 colon
[8] = system: DU-145 prostate
[9] = system: EKVX NSCLC
[10] = system: HCC-2998 colon
[11] = system: HCT-116 colon
[12] = system: HCT-15 colon
[13] = system: HL-60(TB) leukemia
[14] = system: HOP-62 NSCLC
[15] = system: HOP-92 NSCLC
[16] = system: HS 578T breast
[17] = system: HT29 colon
[18] = system: IGROV1 ovarian
[19] = system: K-562 leukemia
[20] = system: KM12 colon
[21] = system: LOX IMVI melanoma
[22] = system: M14 melanoma
[23] = system: MALME-3M melanoma
[24] = system: MCF7 breast
[25] = system: MDA-MB-231 breast
[26] = system: MDA-MB-435
[27] = system: MOLT-4 leukemia
[28] = system: NCI-H226 lung
[29] = system: NCI-H23 lung
[30] = system: NCI-H460 lung
[31] = system: NCI-H522 lung
[32] = system: NCI/ADR-RES ovarian
[33] = system: OVCAR-3 ovarian
[34] = system: OVCAR-4 ovarian
[35] = system: OVCAR-5 ovarian
[36] = system: OVCAR-8 ovarian
[37] = system: PC-3 prostate
[38] = system: RPMI-8226 leukemia
[39] = system: RXF 393 renal
[40] = system: SF-268 CNS
[41] = system: SF-295 CNS
[42] = system: SF-539 CNS
[43] = system: SK-MEL-2 melanoma
[44] = system: SK-MEL-28 melanoma
[45] = system: SK-MEL-5 melanoma
[46] = system: SK-OV-3 ovarian
[47] = system: SN12C renal
[48] = system: SNB-19 CNS
[49] = system: SNB-75 CNS
[50] = system: SR leukemia
[51] = system: SW-620 colon
[52] = system: T-47D breast
[53] = system: TK-10 renal
[54] = system: U251 CNS
[55] = system: UACC-257 melanoma
[56] = system: UACC-62 melanoma
[57] = system: UO-31 renal

## O=C1/C(=C/c2ccccc2[N+](=O)[O-])Oc2ccc(O)cc21
[1]
  GI50: 2 µM
  TGI: 16.9 µM
[2]
  GI50: 4.83 µM
  TGI: 26 µM
[3]
  GI50: 2.42 µM
  TGI: 8.98 µM
[4]
  GI50: 3.16 µM
  TGI: 12.5 µM
[5]
  GI50: 1.62 µM
  TGI: 3.83 µM
[6]
  GI50: 2.81 µM
  TGI: > 100 µM
[7]
  GI50: 2.19 µM
  TGI: 5.88 µM
[8]
  GI50: 2.26 µM
  TGI: 5.38 µM
[9]
  GI50: 3.77 µM
  TGI: 14.8 µM
[10]
  GI50: 2.74 µM
  TGI: 7.94 µM
[11]
  GI50: 1.75 µM
  TGI: 4.17 µM
[12]
  GI50: 1.85 µM
  TGI: 5.47 µM
[13]
  GI50: 2.99 µM
  TGI: 9.91 µM
[14]
  GI50: 7 µM
  TGI: 38.9 µM
[15]
  GI50: 2.24 µM
  TGI: 9.33 µM
[16]
  GI50: 1.9 µM
  TGI: 6.35 µM
[17]
  GI50: 2.83 µM
  TGI: 11.3 µM
[18]
  GI50: 1.62 µM
  TGI: 6.18 µM
[19]
  GI50: 2.84 µM
  TGI: > 100 µM
[20]
  GI50: 4.38 µM
  TGI: 16.4 µM
[21]
  GI50: 1.61 µM
  TGI: 3.36 µM
[22]
  GI50: 2.02 µM
  TGI: 4.99 µM
[23]
  GI50: 2.08 µM
  TGI: 5.85 µM
[24]
  GI50: 1.73 µM
  TGI: 5.52 µM
[25]
  GI50: 2.6 µM
  TGI: 9.46 µM
[26]
  GI50: 2.66 µM
  TGI: 7.52 µM
[27]
  GI50: 3.29 µM
  TGI: > 100 µM
[28]
  GI50: 1.73 µM
  TGI: 4.77 µM
[29]
  GI50: 2.1 µM
  TGI: 5.17 µM
[30]
  GI50: 3.09 µM
  TGI: 10.1 µM
[31]
  GI50: 2.08 µM
  TGI: 4.83 µM
[32]
  GI50: 2.47 µM
  TGI: 7.36 µM
[33]
  GI50: 1.9 µM
  TGI: 3.88 µM
[34]
  GI50: 2.58 µM
  TGI: 9.58 µM
[35]
  GI50: 2.21 µM
  TGI: 5.72 µM
[36]
  GI50: 2.86 µM
  TGI: > 100 µM
[37]
  GI50: 3.08 µM
  TGI: 14.2 µM
[38]
  GI50: 2.4 µM
  TGI: 7.56 µM
[39]
  GI50: 1.8 µM
  TGI: 3.61 µM
[40]
  GI50: 6.32 µM
  TGI: 35.9 µM
[41]
  GI50: 4.11 µM
  TGI: 15.4 µM
[42]
  GI50: 2.16 µM
  TGI: 5.61 µM
[43]
  GI50: 3.23 µM
  TGI: 15.1 µM
[44]
  GI50: 2.37 µM
  TGI: 6.08 µM
[45]
  GI50: 8.89 µM
  TGI: 22 µM
[46]
  GI50: 15.3 µM
  TGI: 62.1 µM
[47]
  GI50: 2.52 µM
  TGI: 7.68 µM
[48]
  GI50: 5.24 µM
  TGI: 19 µM
[49]
  GI50: 1.44 µM
  TGI: 42.4 µM
[50]
  GI50: 2.69 µM
  TGI: > 100 µM
[51]
  GI50: 1.66 µM
  TGI: 4.12 µM
[52]
  GI50: 2.84 µM
  TGI: 19.4 µM
[53]
  GI50: 3.2 µM
  TGI: 7.7 µM
[54]
  GI50: 2.77 µM
  TGI: 11.1 µM
[55]
  GI50: 4.33 µM
  TGI: 38.3 µM
[56]
  GI50: 2.26 µM
  TGI: 6.2 µM
[57]
  GI50: 1.95 µM
  TGI: 6.86 µM
